{"source": "patent US20050215635A1", "about": "“Diarylheptanoid compounds and uses thereof” (priority 2004, published 2005)", "key": {"[1]": {"test_system": "Du-145 prostate tumor cells", "assay": "MTT-microculture tetrazolium cell viability assay / induction of apoptosis in Du-145", "type": "cell-based", "procedure": "The rhizomes of Alpinia officinarum were purchased from Nuherbs Co. (Oakland, Calif.). Du-145 prostate tumor cells were obtained from the American Type Culture Collection (ATCC). Cells were maintained at 37° C. in an atmosphere of 5% CO2 and grown in Roswell Park Memorial Institute (RPMI) media 1640 (GIBCO/BRL) with 10% fetal bovine serum and with 5% penicillin and streptomycin.\nThe powdered roots of Alpinia officinarum were extracted with methanol and concentrated under vacuum using rotary evaporation. The dried residue was then partitioned with hexanes, ethyl acetate and 1-butanol successively. The three extracts were subjected to bioassays.\nThe dried ethyl acetate extract was then chromatographed on a normal phase silica gel column (2.5×30 cm) to perform bioassay-directed fractionation. The extract was first dissolved in methanol and loaded onto the column packing material. The prepared extract was then placed on top of the column and elution was performed using a solvent mixture of chloroform/methanol with an increasing amount of methanol (30:1, 20:1, 10:1, 5:1, 0:100; each 1000 mL). Successive fractions were collected and tested for biological activity. […] This fraction was then rechromatographed on a semipreparative Zorbax Rx-C18 reversed phase HPLC column (9.4 mm×240 mm, 5 μm) purchased from MacMod Analytical (Chadds Ford, Pa.). Compounds were eluted by an isocratic solvent system: 55% A, water with 0.05% formic acid (FA); 45% B, ACN (v/v) at a flow rate of 4 mL/min. The wavelength monitored was 205 nm. Successive fractions (1-3) were collected and sent for biological testing again.\nCellular growth in the presence or absence of experimental agents was determined using the modified method as previously described MTT-microculture tetrazolium assay (World Health Organization (ED.), Medicinal Plants in China, WHO Regional Publications, 1989, 21). Briefly, rapidly growing cells were harvested, counted, and inoculated at the appropriate concentrations (100 μL volume) into 96-well micro-titer plates using a multichannel pipet. After 24 hours, AO-1 to AO-5 were applied in different concentrations to triplicate culture wells, and cultures were incubated for 72 hours at 37° C. MTT ( Sigma, St. Louis, Mo.) was prepared at 2 mg/ml in Phosphate buffered saline (PBS) and 50 μL were added to microculture wells. After 4 hour incubation at 37° C., […] were removed from each well, and 150 μL of 100% DMSO were added to solubilize the MTT-formazan product. After thorough mixing with a mechanical plate mixer, absorbence was measured at 570 nm using a Dynatech microplate reader. […] This assay is based on the reduction of MTT tetrazolium salt to a formazan product by the metabolic activity of live cells and which was measured in a multiwell scanning spectrophotometer. Cell line growth and growth inhibition were expressed in terms of mean absorbance units and following the substraction of mean background absorbance."}, "COX-2 protein expression": {"test_system": "COX-2 protein expression", "assay": "Western blotting of COX-2 protein expression in RAW 264.7 cells", "type": "cell-based, mouse", "details": "HMP 12.5 and 25 μM + LPS (0.5 μg/ml), RAW 264.7, 18 hrs", "procedure": "FIG. 3. Inhibition of LPS induced iNOS and COX-2 protein expression by HMP. RAW 264.7 cells were treated with various concentrations of HMP and/or LPS (0.5 μg/ml) for 18 h. Total-cell lysate (40 μg) was resolved in 8-10% SDS-PAGE then transferred to PVDF membrane and detected with specific antibodies as described in Section 6. This experiment was repeated 4 times with similar observations. Lane-1, Control (without any treatment); 2, LPS (0.5 μg/ml); 3, LPS and HMP 25 μM; 4, LPS and HMP-12.5 μM.\nAt indicated time points, cells were rapidly washed with ice-cold PBS and solubilized in cold lysis buffer containing 10 mM Tris-base, 5 mM EDTA, 50 mM NaCl, 1% Triton X-100, 5 mM phenylmethylsulfonyl fluoride (PMSF), 2 mM sodium orthovanadate, 10 μg/ml leupeptin, 25 μg/ml aprotinin, 1 mM sodium pyrophosphate, and 20% glycerol. […]\nEqual amount of protein (40 μg) from each sample was loaded on SDS-polyacrylamide electrophoresis gel (8 and 10% separating gels for iNOS and p42/44^MAPK, respectively) and resolved for 1.5 h at 120 V in buffer containing 95 mM Tris-HCl, 960 mM glycine, and 0.5% SDS. […] Specific bands were detected by enhanced chemiluminescence's detection system (Amersham-Pharmacia biotech, NJ, USA) and the membrane was exposed to X-ray film. […]"}}, "note": "Entries after “also recorded” stand apart in the source; their conditions may differ.", "data": [{"smiles": "COc1cc(CC/C=C/C(=O)CCc2ccccc2)ccc1O", "note": "[AO-4, 7-(4″-hydroxy-3″-methoxyphenyl)-1-phenyl-hept-4-en-3-one]", "values": [{"measurement": "IC50", "setting": "[1]; Homo sapiens, Du-145 prostate tumor cells, MTT, 72 hours incubation, drug concentration giving 50% inhibition of growth, read-out: IC50 (μM), Effects of Diarylheptanoids on Inducing Apoptosis in DU-145 Cancer Cell Line", "result": 12.5, "unit": "µM"}, {"measurement": "activity in bioassay: inducing apoptosis in Du-145 cancer cell line (in words)", "setting": "[1]; bioassay-directed fractionation of Alpinia officinarum", "result": "some activity; also recorded: most potent"}, {"measurement": "LPS induced COX-2 protein expression (Western blot, in words)", "setting": "COX-2 protein expression", "result": "markedly inhibited"}]}]}
